# Laboratory results published in patent US20250275976A1, “Methods of Treating Neuroinflammatory Conditions” (Athira Pharma, Inc., priority 2022, published 2025).
# Where two headings read alike, the source gives them in different places. Square brackets hold non-standard residues; d marks the D form. Peptide text beside a SMILES is read from it. * marks the point of attachment. Hexanoyl = CCCCCC(=O)*; Ahx = NCCCCCC(=O)O
# Columns and labels:
# [1] = tested on: THP-1-differentiated macrophages; assay: Pro-inflammatory cytokines in supernatants of LPS-challenged THP-1-differentiated macrophages; assay type: cell-based, human; set-up: key to Significant reduction in pro-inflammatory cytokine expression: IL-6 / Significant reduction in pro-inflammatory cytokine expression: TNF-α / Significant reduction in pro-inflammatory cytokine expression: IL-1β: “NS” indicates a non-significant reduction in the indicated cytokine; “+” indicates a p value <0.05 in Tukey post test; “++” indicates a p value <0.01 in Tukey post test; conditions: for Expression of IL-1β and TNF-α (result in words) / Expression of IL-6 (result in words): at at least one tested dose; for Significant reduction in pro-inflammatory cytokine expression: IL-1β / Significant reduction in pro-inflammatory cytokine expression: IL-6 / Significant reduction in pro-inflammatory cytokine expression: TNF-α: LPS 24 hrs
# Text: Neuroinflammation plays a crucial role in disease progression and is a complex phenomenon involving various cells that affect many extra- and intracellular signaling pathways and cytokine production. The macrophage of the brain (microglia) is the main agent of innate immunity in the CNS and performs various functions, including neuroprotection, in response to inflammatory signals. Activated microglia participate in developing neuroinflammation, responding to toxic exogenous substances (like LPS) or endogenous substances (like amyloid-beta). Here, THP-1 cells were used as an in-vitro cell model to evaluate mechanisms relevant to CNS inflammation. Differentiation with phorbol-12-myristate-13-acetate (PMA) causes THP-1 monocyte cells to acquire functional and morphological resemblance to macrophages. LPS interacts with THP-1 differentiated macrophage through the toll-like receptor 4, triggering the inflammatory response and stimulating pro-inflammatory cytokine release and eventually leading to cellular death. Test compounds were investigated for whether they have anti-inflammatory effects on LPS-challenged macrophage cultures. THP-1-differentiated macrophages were treated with test compounds for 20 minutes, followed by 24 hrs of LPS challenge. Culture supernatants were then collected to analyzed for the presence of pro-inflammatory cytokines: interleukin 1β (IL--1β), interleukin 6 (IL-6) and tumor necrosis factor α (TNF-α).
# Cytokine quantification in cell culture supernatants was accomplished by homogeneous time resolved fluorescence (HTRF) kits to assess levels of IL-1β (Human IL-1β kit, #62HIL1BPEG, Cisbio) and IL-6 (Human IL-6 kit, 62HILO6PET, Cisbio), and by ELISA (Human TNF-α ELISA kit, KHC3011, ThermoFisher) to determine the levels of TNF-α.
# Data analysis was performed via 1-way ANOVA with Tukey post-test compared to LPS treatment cultures using Prism statistical software (GraphPad). Tabular data indicates significance of reduction in culture supernatants for the indicated analyte at the indicated dose.
# [2] = tested on: Rat primary cortical neuron cultures; conditions: LPS 24 h
# Description: (§1) To assess the neuroprotective effect of compound treatment against inflammatory insult, primary cultured cortical neurons were subjected to lipopolysaccharide (LPS) treatment for 24h along with various compound doses of compounds of Formula (I) or Compound A19. […] Rat primary cortical neuron cultures were grown at 37° C., 5% C02 in Complete Neurobasal Medium supplemented with B27/GDNF/BDNF containing 10% FBS until maturity. 25 μl of culture volume were seeded in a 384-well plate at 5,000 cells/well, and treated with 1 μM, 100 nM, 10 nM, 1 nM, or 0.1 nM of test compound for 15 minutes. Cells were then subjected to 1 μM LPS challenge for 24 hours. Luminescence measurements to assess relative levels of ATP were performed on an Envision plate reader (Perkin Elmer). Data for DMSO control were set to 100% cell viability, and each group (n=4) were averaged and presented as mean±SEM.
# [3] = tested on: Rat primary cortical neuron cultures; assay: Neuroprotection of rat cortical neurons against LPS challenge (Cell Titer-Glo); conditions: for Protection of primary neurons from LPS-stimulated inflammatory toxicity (in words): at at least one dose tested; for Significance of neuroprotection vs 1 uM LPS: LPS 24 h
# Description: as §1
# [4] = tested on: Rat primary cortical neuron cultures; assay: Neuroprotection of rat primary cortical neurons against neurotoxic insults (Cell Titer-Glo viability); assay type: cell-based
# Text: HGF/MET signaling activation is expected to protect cells, including neurons, from cell death. […] Hydrogen peroxide (H2O2) treatment produces toxic oxidative stress. Bacteria-derived lipopolysaccharide (LPS) treatment induces inflammatory cell death. Treatment with excess glutamate (Glut) produces excitotoxicity in neuron cultures. Treatment with 1-methyl-4-phenylpyridinium (MPP^+) causes cell death by inhibition of mitochondrial function.
# Cells were then subjected to individual conditional insults for 24 hours at the following concentrations: H2O2 at 1 uM, LPS at 1 uM, glutamate at 25 uM, or MPP+ at 500 uM. All treatments contained recombinant human HGF (R&D Systems) at a concentration of 5 ng/ml. MK-801 (Dizocilpine) is a pore blocker of the N-Methyl-D-aspartate (NMDA) receptor, a glutamate receptor, and was used as a positive control.
# Data was normalized to DMSO+HGF control set at 100% cell viability.
# Data are reported as statistical significance vs. insult control, with NS=not significant, +=p<0.05, ++=p<0.01, and +++=p<0.001.
smiles,measurement,setting,value
CCC(C)CN1CC2N(Cc3ccc(C(F)(F)F)cc3)CCC(=O)N2[C@@H](C)C1=O (stereo partly drawn) [Compound 5a],Expression of IL-1β and TNF-α (result in words),[1],significantly reduced
same,Expression of IL-6 (result in words),[1],significantly reduced
same,Significant reduction in pro-inflammatory cytokine expression: IL-1β,[1]; dose 0.1 nM,++ (“++” indicates a p value <0.01 in Tukey post test)
same,Significant reduction in pro-inflammatory cytokine expression: IL-6,[1]; dose 0.1 nM,NS
same,Significant reduction in pro-inflammatory cytokine expression: TNF-α,[1]; dose 0.1 nM,NS
same,Significant reduction in pro-inflammatory cytokine expression: IL-1β,[1]; dose 10 nM,++ (“++” indicates a p value <0.01 in Tukey post test)
same,Significant reduction in pro-inflammatory cytokine expression: IL-6,[1]; dose 10 nM,+ (“+” indicates a p value <0.05 in Tukey post test)
same,Significant reduction in pro-inflammatory cytokine expression: TNF-α,[1]; dose 10 nM,NS
same,Significant reduction in pro-inflammatory cytokine expression: IL-1β,[1]; dose 1000 nM,++ (“++” indicates a p value <0.01 in Tukey post test)
same,Significant reduction in pro-inflammatory cytokine expression: IL-6,[1]; dose 1000 nM,++ (“++” indicates a p value <0.01 in Tukey post test)
same,Significant reduction in pro-inflammatory cytokine expression: TNF-α,[1]; dose 1000 nM,+ (“+” indicates a p value <0.05 in Tukey post test)
same,Significance of neuroprotection vs 1 uM LPS,[2]; dose 0.1 nM,+++ (+++ indicates p<0.001)
same,Significance of neuroprotection vs 1 uM LPS,[2]; dose 1 nM,+++ (+++ indicates p<0.001)
same,Significance of neuroprotection vs 1 uM LPS,[2]; dose 10 nM,+++ (+++ indicates p<0.001)
same,Significance of neuroprotection vs 1 uM LPS,[2]; dose 100 nM,+++ (+++ indicates p<0.001)
same,Significance of neuroprotection vs 1 uM LPS,[2]; dose 1 μM,+++ (+++ indicates p<0.001)
same,Protection of primary neurons from LPS-stimulated inflammatory toxicity (in words),[3],protected primary neurons from LPS-stimulated inflammatory toxicity
"CCCCCC(=O)N[C@@H](Cc1ccc(O)cc1)C(=O)N[C@H](C(=O)NCCCCCC(N)=O)[C@@H](C)CC [Compound A19 active metabolite, dihexa] (Hexanoyl-Tyr-Ile-[Ahx]-NH2)",Statistical significance vs. insult control (cell viability),"[4]; Glutamate (25 uM) insult, [Compound A19 active metabolite] 0.1 nM + HGF (5 ng/ml)",+ (+ = p < 0.05)
same,Statistical significance vs. insult control (cell viability),"[4]; Glutamate (25 uM) insult, [Compound A19 active metabolite] 1 nM + HGF (5 ng/ml)",++ (++ = p < 0.01)
same,Statistical significance vs. insult control (cell viability),"[4]; Glutamate (25 uM) insult, [Compound A19 active metabolite] 100 nM (second column headed 100 nM) + HGF (5 ng/ml)",+ (+ = p < 0.05)
same,Statistical significance vs. insult control (cell viability),"[4]; Glutamate (25 uM) insult, [Compound A19 active metabolite] 100 nM + HGF (5 ng/ml)",+ (+ = p < 0.05)
same,Statistical significance vs. insult control (cell viability),"[4]; H2O2 (1 uM) insult, [Compound A19 active metabolite] 0.1 nM + HGF (5 ng/ml)",+++ (+++ = p < 0.001)
same,Statistical significance vs. insult control (cell viability),"[4]; H2O2 (1 uM) insult, [Compound A19 active metabolite] 1 nM + HGF (5 ng/ml)",+++ (+++ = p < 0.001)
same,Statistical significance vs. insult control (cell viability),"[4]; H2O2 (1 uM) insult, [Compound A19 active metabolite] 100 nM (second column headed 100 nM) + HGF (5 ng/ml)",+++ (+++ = p < 0.001)
same,Statistical significance vs. insult control (cell viability),"[4]; H2O2 (1 uM) insult, [Compound A19 active metabolite] 100 nM + HGF (5 ng/ml)",+++ (+++ = p < 0.001)
same,Statistical significance vs. insult control (cell viability),"[4]; H2O2 (1 uM) insult, [Compound A19 active metabolite] 1 uM + HGF (5 ng/ml)",+++ (+++ = p < 0.001)
same,Neuroprotection against the cohort of insults (result in words),"[4]; H2O2, glutamate, LPS, MPP+, broad range of concentrations",effective neuroprotective treatment at a broad range of concentrations against the entire cohort of insults tested
same,Statistical significance vs. insult control (cell viability),"[4]; LPS (1 uM) insult, [Compound A19 active metabolite] 0.1 nM + HGF (5 ng/ml)",++ (++ = p < 0.01)
same,Statistical significance vs. insult control (cell viability),"[4]; LPS (1 uM) insult, [Compound A19 active metabolite] 1 nM + HGF (5 ng/ml)",++ (++ = p < 0.01)
same,Statistical significance vs. insult control (cell viability),"[4]; LPS (1 uM) insult, [Compound A19 active metabolite] 100 nM (second column headed 100 nM) + HGF (5 ng/ml)",+++ (+++ = p < 0.001)
same,Statistical significance vs. insult control (cell viability),"[4]; LPS (1 uM) insult, [Compound A19 active metabolite] 100 nM + HGF (5 ng/ml)",++ (++ = p < 0.01)
same,Statistical significance vs. insult control (cell viability),"[4]; LPS (1 uM) insult, [Compound A19 active metabolite] 1 uM + HGF (5 ng/ml)",++ (++ = p < 0.01)
same,Statistical significance vs. insult control (cell viability),"[4]; MPP+ (500 uM) insult, [Compound A19 active metabolite] 0.1 nM + HGF (5 ng/ml)",+++ (+++ = p < 0.001)
same,Statistical significance vs. insult control (cell viability),"[4]; MPP+ (500 uM) insult, [Compound A19 active metabolite] 1 nM + HGF (5 ng/ml)",+++ (+++ = p < 0.001)
same,Statistical significance vs. insult control (cell viability),"[4]; MPP+ (500 uM) insult, [Compound A19 active metabolite] 100 nM (second column headed 100 nM) + HGF (5 ng/ml)",+++ (+++ = p < 0.001)
same,Statistical significance vs. insult control (cell viability),"[4]; MPP+ (500 uM) insult, [Compound A19 active metabolite] 100 nM + HGF (5 ng/ml)",+++ (+++ = p < 0.001)
same,Statistical significance vs. insult control (cell viability),"[4]; MPP+ (500 uM) insult, [Compound A19 active metabolite] 1 uM + HGF (5 ng/ml)",+++ (+++ = p < 0.001)
same,Expression of IL-1β and TNF-α (result in words),[1],significantly reduced
same,Expression of IL-6 (result in words),[1],significantly reduced
same,Significant reduction in pro-inflammatory cytokine expression: IL-1β,[1]; dose 0.1 nM,NS
same,Significant reduction in pro-inflammatory cytokine expression: IL-6,[1]; dose 0.1 nM,NS
same,Significant reduction in pro-inflammatory cytokine expression: TNF-α,[1]; dose 0.1 nM,NS
same,Significant reduction in pro-inflammatory cytokine expression: IL-1β,[1]; dose 10 nM,++ (“++” indicates a p value <0.01 in Tukey post test)
same,Significant reduction in pro-inflammatory cytokine expression: IL-6,[1]; dose 10 nM,+ (“+” indicates a p value <0.05 in Tukey post test)
same,Significant reduction in pro-inflammatory cytokine expression: TNF-α,[1]; dose 10 nM,+ (“+” indicates a p value <0.05 in Tukey post test)
same,Significant reduction in pro-inflammatory cytokine expression: IL-1β,[1]; dose 1000 nM,+ (“+” indicates a p value <0.05 in Tukey post test)
same,Significant reduction in pro-inflammatory cytokine expression: IL-6,[1]; dose 1000 nM,++ (“++” indicates a p value <0.01 in Tukey post test)
same,Significant reduction in pro-inflammatory cytokine expression: TNF-α,[1]; dose 1000 nM,++ (“++” indicates a p value <0.01 in Tukey post test)
same,Protection of primary neurons from LPS-stimulated inflammatory toxicity (in words),[3],protected primary neurons from LPS-stimulated inflammatory toxicity
same,Significance of neuroprotection vs 1 uM LPS,[3]; dose 0.1 nM,+++ (+++ indicates p<0.001)
same,Significance of neuroprotection vs 1 uM LPS,[3]; dose 1 nM,++ (++ indicates p<0.01)
same,Significance of neuroprotection vs 1 uM LPS,[3]; dose 10 nM,+++ (+++ indicates p<0.001)
same,Significance of neuroprotection vs 1 uM LPS,[3]; dose 100 nM,++ (++ indicates p<0.01)
same,Significance of neuroprotection vs 1 uM LPS,[3]; dose 1 μM,++ (++ indicates p<0.01)
